Source: ChEMBL document CHEMBL1201862, “PubChem BioAssay data set” (2004)
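The compound was tested at five concentrations on cells cultured in 96-well plates, with a 48-hour exposure period. GI50 is the concentration that inhibits growth by half.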 Calls of active or inactive are those of the source. Rule as the data show it: active = GI50 up to about 1.1 µM and inactive = higher.

Experiments:
Assay in all cases: growth of human tumour cells (NCI), 48 h
[1] = test system: A498
[2] = test system: A549
[3] = test system: CCRF-CEM
[4] = test system: DMS-114
[5] = test system: HCC 2998
[6] = test system: HCT-116
[7] = test system: HOP-92
[8] = test system: LOX IMVI
[9] = test system: MOLT-4
[10] = test system: NCI-H23
[11] = test system: NCI-H460
[12] = test system: NCI-H522
[13] = test system: OVCAR-4
[14] = test system: OVCAR-5
[15] = test system: OVCAR-8
[16] = test system: SNB-19
[17] = test system: SR
[18] = test system: UACC-62
[19] = test system: MCF7

SMILES | GI50 [1] | GI50 [2] | GI50 [3] | GI50 [4] | GI50 [5] | GI50 [6] | GI50 [7] | GI50 [8] | GI50 [9] | GI50 [10] | GI50 [11] | GI50 [12] | GI50 [13] | GI50 [14] | GI50 [15] | GI50 [16] | GI50 [17] | GI50 [18] | GI50 [19]
COc1cc(Br)c(CC2=NCCc3cc(OC)c(OC)cc32)cc1OC | 14.9 µM (inactive) | 21.1 µM (inactive) | 19.7 µM (inactive) | 8.89 µM (inactive) | 16.4 µM (inactive) | 3.16 µM (inactive) | 1.64 µM (inactive) | 9.93 µM (inactive) | 15.8 µM (inactive) | 9.71 µM (inactive) | 2.35 µM (inactive) | 16.9 µM (inactive) | 28.9 µM (inactive) | 3.88 µM (inactive) | 48.1 µM (inactive) | 48.8 µM (inactive) | 6.78 µM (inactive) | 7.13 µM (inactive) | –
O=C(c1cccs1)N(C(=S)N1CCN(c2ccccn2)CC1)C1CCCCC1 | – | 43.7 µM (inactive) | 81.1 µM (inactive) | 36.9 µM (inactive) | – | 49.3 µM (inactive) | 66.2 µM (inactive) | 77.4 µM (inactive) | 33 µM (inactive) | > 100 µM (inactive) | 54.6 µM (inactive) | 66.2 µM (inactive) | > 100 µM (inactive) | > 100 µM (inactive) | > 100 µM (inactive) | > 100 µM (inactive) | 36.6 µM (inactive) | > 100 µM (inactive) | –
Cc1cc(O)c2c(c1)OC1(C)CCC3C(C)(C)CCCC34COC2C14 (configuration not stated) | 13.2 µM (inactive) | 13.1 µM (inactive) | 20 µM (inactive) | 13.9 µM (inactive) | 14.7 µM (inactive) | 14.3 µM (inactive) | – | 14 µM (inactive) | 0.141 µM (active) | 17.6 µM (inactive) | 16.4 µM (inactive) | 17.6 µM (inactive) | 18.6 µM (inactive) | 14.7 µM (inactive) | 16.7 µM (inactive) | 18.3 µM (inactive) | > 10 µM (inactive) | 19.2 µM (inactive) | –
Cc1cc2nc3c(C(OC4OC(CO)C(O)C(O)C4O)C(O)CO)nn(-c4ccccc4)c3nc2cc1C (configuration not stated) | > 100 µM (inactive) | – | > 100 µM (inactive) | > 100 µM (inactive) | > 100 µM (inactive) | > 100 µM (inactive) | – | > 100 µM (inactive) | > 100 µM (inactive) | > 100 µM (inactive) | > 100 µM (inactive) | > 100 µM (inactive) | > 100 µM (inactive) | > 100 µM (inactive) | > 100 µM (inactive) | > 100 µM (inactive) | > 100 µM (inactive) | > 100 µM (inactive) | –
CCCC(OCC)(OCC)OCC | > 100 µM (inactive) | > 100 µM (inactive) | > 100 µM (inactive) | 69 µM (inactive) | > 100 µM (inactive) | 27.5 µM (inactive) | > 100 µM (inactive) | 48.8 µM (inactive) | > 100 µM (inactive) | > 100 µM (inactive) | > 100 µM (inactive) | > 100 µM (inactive) | > 100 µM (inactive) | > 100 µM (inactive) | > 100 µM (inactive) | > 100 µM (inactive) | > 100 µM (inactive) | > 100 µM (inactive) | –
C[C@]12C=CC(=O)C=C1CC[C@H]1[C@@H]3C[C@@H](O)[C@](O)(C(=O)CO)[C@@]3(C)C[C@H](O)[C@@]12F [TRIAMCINOLONE] | > 100 µM (inactive) | > 100 µM (inactive) | 1.4 µM (inactive) | > 100 µM (inactive) | > 100 µM (inactive) | > 100 µM (inactive) | > 100 µM (inactive) | > 100 µM (inactive) | > 100 µM (inactive) | > 100 µM (inactive) | > 100 µM (inactive) | > 100 µM (inactive) | > 100 µM (inactive) | > 100 µM (inactive) | > 100 µM (inactive) | > 100 µM (inactive) | > 100 µM (inactive) | > 100 µM (inactive) | –
O=C(Nc1nc2ccccc2n1Cc1ccc(Cl)cc1)NC12CC3CC(CC(C3)C1)C2 | – | 21.1 µM (inactive) | 76.7 µM (inactive) | 24.3 µM (inactive) | > 100 µM (inactive) | 19.4 µM (inactive) | 19.9 µM (inactive) | 34.1 µM (inactive) | > 100 µM (inactive) | 16.4 µM (inactive) | 20.1 µM (inactive) | 16.1 µM (inactive) | 8.99 µM (inactive) | 91.2 µM (inactive) | – | 24.9 µM (inactive) | 27.9 µM (inactive) | 17.3 µM (inactive) | –
C=CCOc1cc2c(cc1C(C)c1ccc(OC)cc1)OCO2 (configuration not stated) | 2.08 µM (inactive) | 0.869 µM (active) | 0.443 µM (active) | 0.289 µM (active) | 0.887 µM (active) | 0.525 µM (active) | – | 0.598 µM (active) | 0.483 µM (active) | 0.807 µM (active) | 0.409 µM (active) | 0.205 µM (active) | > 100 µM (inactive) | 12.2 µM (inactive) | 0.624 µM (active) | 0.564 µM (active) | 0.299 µM (active) | 0.416 µM (active) | 0.453 µM (active)
